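Interpolation was linear, between the two tested concentrations surrounding the appropriate level; five concentrations were tested over 48 hours in 96-well plates. TGI marks complete inhibition of growth.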
How the values were obtained:
Experiment in all cases: growth of human tumour cells (NCI), 48 h
UACC-62 melanoma = test system: UACC-62 melanoma
NCI-H522 lung = test system: NCI-H522 lung
U251 CNS = test system: U251 CNS
OVCAR-3 ovarian = test system: OVCAR-3 ovarian
SW-620 colon = test system: SW-620 colon
LOX IMVI melanoma = test system: LOX IMVI melanoma
RXF 393 renal = test system: RXF 393 renal
SNB-19 CNS = test system: SNB-19 CNS
HCC-2998 colon = test system: HCC-2998 colon
HOP-62 NSCLC = test system: HOP-62 NSCLC
SNB-78 CNS = test system: SNB-78 CNS
DLD-1 colon = test system: DLD-1 colon
COLO 205 colon = test system: COLO 205 colon
KM20L2 colon = test system: KM20L2 colon
A498 renal = test system: A498 renal
SR leukemia = test system: SR leukemia
CCRF-CEM leukemia = test system: CCRF-CEM leukemia
ACHN renal = test system: ACHN renal
HOP-92 NSCLC = test system: HOP-92 NSCLC
DMS 273 small cell lung = test system: DMS 273 small cell lung
RPMI-8226 leukemia = test system: RPMI-8226 leukemia
K-562 leukemia = test system: K-562 leukemia
KM12 colon = test system: KM12 colon
786-0 renal = test system: 786-0 renal
LXFL 529 NSCLC = test system: LXFL 529 NSCLC
HCT-116 colon = test system: HCT-116 colon
SF-268 CNS = test system: SF-268 CNS
A549 NSCLC = test system: A549 NSCLC
SF-539 CNS = test system: SF-539 CNS
TK-10 renal = test system: TK-10 renal
IGROV1 ovarian = test system: IGROV1 ovarian
MOLT-4 leukemia = test system: MOLT-4 leukemia
NCI-H460 lung = test system: NCI-H460 lung
DMS 114 small cell lung = test system: DMS 114 small cell lung
SK-MEL-28 melanoma = test system: SK-MEL-28 melanoma
HL-60(TB) leukemia = test system: HL-60(TB) leukemia
EKVX NSCLC = test system: EKVX NSCLC
UACC-257 melanoma = test system: UACC-257 melanoma
OVCAR-8 ovarian = test system: OVCAR-8 ovarian
SK-OV-3 ovarian = test system: SK-OV-3 ovarian
M19-MEL melanoma = test system: M19-MEL melanoma
UO-31 renal = test system: UO-31 renal
SK-MEL-5 melanoma = test system: SK-MEL-5 melanoma
MALME-3M melanoma = test system: MALME-3M melanoma
NCI-H23 lung = test system: NCI-H23 lung
HOP-18 NSCLC = test system: HOP-18 NSCLC
OVCAR-5 ovarian = test system: OVCAR-5 ovarian
HCT-15 colon = test system: HCT-15 colon
SN12C renal = test system: SN12C renal
SF-295 CNS = test system: SF-295 CNS
M14 melanoma = test system: M14 melanoma
SK-MEL-2 melanoma = test system: SK-MEL-2 melanoma
DU-145 prostate = test system: DU-145 prostate
NCI-H226 lung = test system: NCI-H226 lung
SNB-75 CNS = test system: SNB-75 CNS
MCF7 breast = test system: MCF7 breast
BT-549 breast = test system: BT-549 breast
HS 578T breast = test system: HS 578T breast
PC-3 prostate = test system: PC-3 prostate
MDA-MB-435 = test system: MDA-MB-435
MDA-MB-231 breast = test system: MDA-MB-231 breast
HT29 colon = test system: HT29 colon
OVCAR-4 ovarian = test system: OVCAR-4 ovarian
CAKI-1 renal = test system: CAKI-1 renal
T-47D breast = test system: T-47D breast
MDA-N = test system: MDA-N
NCI/ADR-RES ovarian = test system: NCI/ADR-RES ovarian

With `O=C1OCc2nc3c(c(-c4ccccc4C(F)(F)F)c21)C(=O)OC3` the TGI (UACC-62 melanoma) was > 100 µM, the TGI (NCI-H522 lung) was > 100 µM and the TGI (U251 CNS) was > 100 µM. For the same compound, the TGI (OVCAR-3 ovarian) was > 100 µM, the TGI (SW-620 colon) was > 100 µM and the TGI (LOX IMVI melanoma) was > 100 µM. The TGI (RXF 393 renal) was > 100 µM, the TGI (SNB-19 CNS) was > 100 µM and the TGI (HCC-2998 colon) was > 100 µM. For the same compound, the TGI (HOP-62 NSCLC) was > 100 µM, the TGI (SNB-78 CNS) was > 100 µM and the TGI (DLD-1 colon) was > 100 µM. For the same compound, the TGI (COLO 205 colon) was > 100 µM, the TGI (KM20L2 colon) was > 100 µM and the TGI (A498 renal) was > 100 µM. For the same compound, the TGI (SR leukemia) was > 100 µM, the TGI (CCRF-CEM leukemia) was > 100 µM and the TGI (ACHN renal) was > 100 µM. The TGI (HOP-92 NSCLC) was > 100 µM, the TGI (DMS 273 small cell lung) was > 100 µM and the TGI (RPMI-8226 leukemia) was > 100 µM. For the same compound, the TGI (K-562 leukemia) was > 100 µM, the TGI (KM12 colon) was > 100 µM and the TGI (786-0 renal) was > 100 µM. The TGI (LXFL 529 NSCLC) was > 100 µM, the TGI (HCT-116 colon) was > 100 µM and the TGI (SF-268 CNS) was > 100 µM. For the same compound, the TGI (A549 NSCLC) was > 100 µM, the TGI (SF-539 CNS) was > 100 µM and the TGI (TK-10 renal) was > 100 µM. For the same compound, the TGI (IGROV1 ovarian) was > 100 µM, the TGI (MOLT-4 leukemia) was > 100 µM and the TGI (NCI-H460 lung) was > 100 µM. For the same compound, the TGI (DMS 114 small cell lung) was > 100 µM, the TGI (SK-MEL-28 melanoma) was > 100 µM and the TGI (HL-60(TB) leukemia) was > 100 µM. For the same compound, the TGI (EKVX NSCLC) was > 100 µM, the TGI (UACC-257 melanoma) was > 100 µM and the TGI (OVCAR-8 ovarian) was > 100 µM. The TGI (SK-OV-3 ovarian) was > 100 µM, the TGI (M19-MEL melanoma) was > 100 µM and the TGI (UO-31 renal) was > 100 µM. For the same compound, the TGI (SK-MEL-5 melanoma) was > 100 µM, the TGI (MALME-3M melanoma) was > 100 µM and the TGI (NCI-H23 lung) was > 100 µM. The TGI (HOP-18 NSCLC) was > 100 µM, the TGI (OVCAR-5 ovarian) was > 100 µM and the TGI (HCT-15 colon) was > 100 µM. The TGI (SN12C renal) was > 100 µM, the TGI (SF-295 CNS) was > 100 µM and the TGI (M14 melanoma) was > 100 µM. The TGI (SK-MEL-2 melanoma) was > 100 µM.

`NC1CC(=O)c2c(I)sc(I)c21` (stereo unspecified) gave a TGI (UACC-62 melanoma) of 32.6 µM, a TGI (NCI-H522 lung) of 24.3 µM and a TGI (U251 CNS) of 51.1 µM. For the same compound, the TGI (OVCAR-3 ovarian) was 38.7 µM, the TGI (SW-620 colon) was 46.1 µM and the TGI (LOX IMVI melanoma) was 27.2 µM. The TGI (RXF 393 renal) was > 60.8 µM, the TGI (DU-145 prostate) was > 55.1 µM and the TGI (SNB-19 CNS) was 46.9 µM. It also gave a TGI (HCC-2998 colon) of 44.2 µM, a TGI (HOP-62 NSCLC) of 40.1 µM and a TGI (NCI-H226 lung) of 45.6 µM. For the same compound, the TGI (COLO 205 colon) was > 63 µM, the TGI (A498 renal) was 37.1 µM and the TGI (SR leukemia) was 48.4 µM. The TGI (CCRF-CEM leukemia) was > 34.3 µM, the TGI (ACHN renal) was 42.1 µM and the TGI (HOP-92 NSCLC) was 43.5 µM. The TGI (SNB-75 CNS) was 37.9 µM, the TGI (MCF7 breast) was > 67.7 µM and the TGI (RPMI-8226 leukemia) was 29.9 µM. The TGI (BT-549 breast) was 37.4 µM, the TGI (HS 578T breast) was 75 µM and the TGI (K-562 leukemia) was > 100 µM. For the same compound, the TGI (KM12 colon) was 32.9 µM, the TGI (PC-3 prostate) was 42.8 µM and the TGI (786-0 renal) was > 53.4 µM. For the same compound, the TGI (MDA-MB-435) was 38.7 µM, the TGI (MDA-MB-231 breast) was 38.1 µM and the TGI (HCT-116 colon) was > 49.4 µM. The TGI (SF-268 CNS) was 46.1 µM, the TGI (A549 NSCLC) was > 79.5 µM and the TGI (SF-539 CNS) was 44.8 µM. It also gave a TGI (HT29 colon) of 50.6 µM, a TGI (OVCAR-4 ovarian) of 38.4 µM and a TGI (CAKI-1 renal) of 27.1 µM. The TGI (TK-10 renal) was 37.2 µM, the TGI (IGROV1 ovarian) was 33.1 µM and the TGI (MOLT-4 leukemia) was 44.8 µM. The TGI (NCI-H460 lung) was 66.8 µM, the TGI (SK-MEL-28 melanoma) was 43.2 µM and the TGI (HL-60(TB) leukemia) was 14.6 µM. For the same compound, the TGI (EKVX NSCLC) was 39.3 µM, the TGI (UACC-257 melanoma) was 39.9 µM and the TGI (OVCAR-8 ovarian) was > 55.4 µM. The TGI (T-47D breast) was > 73 µM, the TGI (SK-OV-3 ovarian) was > 100 µM and the TGI (UO-31 renal) was 35.5 µM. The TGI (SK-MEL-5 melanoma) was > 71.1 µM, the TGI (MALME-3M melanoma) was 29.8 µM and the TGI (NCI-H23 lung) was 35 µM. It also gave a TGI (OVCAR-5 ovarian) of 53 µM, a TGI (MDA-N) of 44.7 µM and a TGI (HCT-15 colon) of 45.8 µM. For the same compound, the TGI (NCI/ADR-RES ovarian) was > 61.7 µM, the TGI (SN12C renal) was > 60.6 µM and the TGI (SF-295 CNS) was 39.8 µM. For the same compound, the TGI (M14 melanoma) was > 77.1 µM and the TGI (SK-MEL-2 melanoma) was 36.2 µM.

From PubChem BioAssay (NCI)
